From PMC12744750 (Plant Communications, 2025)
“Also recorded” adds a separate entry of the source.

Key:
pPLS::GUS = pPLS::GUS expression in root tips after hormone treatment; type: in vivo, Arabidopsis; details: 10 μM 2,4-D, root tips
Excerpt: Figure S15. The link between auxi n and et hyl ene si gnal l i ng ef f ect s on PLS transcription, and downstream ef f ect s on et hyl ene responses.
(A) Ant agoni sm between auxi n and et hyl ene on PLS expressi on.
Auxin posit ively regulates PLS gene transcription, whi l e ACC (ethylene pr ecur sor ) […]
Lef t upper panel: pPLS::GUS […]
expr ession in the Arabidopsis root tip under standard gr owt h conditions. Lef t lower panel: pPLS::PLS:GFP expr ession in the Arabidopsis root tip under standard gr owt h conditions.
Ri ght panel: pPLS::GUS expr ession in root tips treated wi t h 10 μM 2,4-D, showing ect opic […]
10 μM 2,4-D plus 10 μm ACC, showing the ant agonism of the inductive eff ect of 2,4-D on PLS::GUS expr ession. Images ar e representative of 10 independently gr own roots. […]

[1] = system: Arabidopsis pls mutant seedlings (primary root length); experiment: Hydroponic peptide feeding: rescue of short primary root of pls mutant; type: in vivo, Arabidopsis thaliana; details: for rescue of root growth of pls seedlings: 50 nM peptide, n = 25 (Figure 2C)
Method: (A) Amino acid sequence of the PLS peptide from Arabidopsis thaliana with the Camelina sativa PLS sequence and the synthetic truncations N1, N2, C1, and C2 indicated by horizontal lines. Two cysteine residues are highlighted in bold. (B) Effect of the synthetic Arabidopsis PLS full-length peptide, A. thaliana PLS(FL), and the Camelina PLS peptide (C. sativa PLS) on Arabidopsis primary root length. Wild-type (C24; blue bars) and pls mutant seedlings (orange bars) were grown hydroponically in the presence (100 nM) or absence of peptide for 10 days. ∗∗∗P < 0.05, t-test between C24 and pls. Error bars show ±1 standard error of the mean, n = 20. (C) Effect of synthetic full-length and truncated peptides on primary root length of wild-type (blue bars) and pls mutant (orange bars) Arabidopsis. Seedlings were grown hydroponically in the presence of 50 nM peptide for 10 days. C1, C-terminal 14 amino acids; C2, C-terminal 24 amino acids; N1, N-terminal 22 amino acids; N2, N-terminal 9 amino acids; full-length PLS, 36 amino acids. Error bars show ±1 standard error of the mean, n = 25. ∗∗∗P < 0.05, t-test between C24 and pls.
proPLS::PLS:GFP comprises a 1.5-kb PLS promoter sequence ([Casson et al., 2002]) fused to the PLS open reading frame in pMDC107 (obtained from Prof. P.J. Hussey, Durham University) as a C-terminal GFP translational fusion. The PLS ORF with its 1.5-kb promoter was amplified from the TOPO 2.1 vector, which contained the PLS gene sequence with promoter ([Casson et al., 2002]); the primers used for cloning are listed in supplemental Table 9. pls mutant plants were transformed using the method of [Clough and Bent (1998)]. proPLS::GFP plants were generated using the 1.5-kb PLS promoter ([Casson et al., 2002]) fused to GFP in a wild-type background. p35S::GFP seedlings were obtained from Dr. Piers Hemsley, Durham University. Seedlings of Arabidopsis thaliana ecotype C24 or Col-0, pls mutants, and transgenic PLS overexpressers, all from lab stocks, were grown on solid sterile half-strength (2.2 g/l) Murashige and Skoog medium (Sigma-Aldrich) containing 10 g/l sucrose (half-strength [½] MS10 medium) solidified with 2.5 g/l Phytagel (Sigma-Aldrich) in 90-mm Petri dishes (Sarstedt, Leicester, UK) at 21°C under a 16-h photoperiod as described previously ([Casson et al., 2002]; [Chilley et al., 2006]). N. benthamiana plants (lab stocks) were grown in a controlled environment (21°C, 16-h photoperiod) for transient expression studies in leaf tissue. For hydroponic feeding studies, Arabidopsis seedlings were cultured in liquid ½ MS10 medium (1 ml/well) in sterile 24-well plates (Sarstedt), essentially as described in [Matsuzaki et al. (2010]). For hormone and peptide assays, one seedling was grown in each well at 21°C under a 16-h photoperiod. For peptide feeding experiments, purified freeze-dried peptide was dissolved in DMSO to create a 500-μM stock solution. The peptide stock solution was added to liquid ½ MS10 medium containing 0.1% DMSO to obtain a final peptide concentration of 50 or 100 nM (or 10, 25, 50, and 100 nM for dose-dependent assays). For copper treatments, 1 mM CuSO4 solution was filter sterilized and added to autoclaved liquid ½ MS10 medium to obtain final CuSO4 concentrations of 0, 5, 10, 15, 20, 25, 30, 35, 40, 45, and 50 μM. Seedlings were scanned to create a digital image, and root lengths of the seedlings were measured using ImageJ. Statistical analysis was performed using Real Statistics Resource Pack software (release 3.8, www.real-statistics.com) in Excel (Microsoft) using data from at least 10 independently grown seedlings for root growth analysis; specific numbers are defined for each experiment.

[2] = Anaerobic Cu(I) titration in competition with bicinchoninic acid (BCA); type: binding; details: synthetic peptide; mutant 40 μM, BCA 93.3 μM, mean ± SD, n = 3 (supplemental Figure 10)
Method: Freeze-dried synthetic PLS peptide (Cambridge Research Biochemicals) was dissolved in DMSO. An aliquot was added to aqueous buffer (10 mM HEPES [pH 7], 20 mM NaCl, 80 mM KCl), and absorbance was recorded at 280 nm. PLS concentration was estimated from the absorbance and the ProtParam estimated extinction coefficient of 2980 M^−1 cm^−1. Concurrently, a sample was submitted for quantitative amino acid analysis (Abingdon Health Laboratory Services). From this analysis, a conversion factor of 2.27 was generated, which was applied to the concentrations determined by A280 nm.
A fusion of PLS to MBP was created using the NEBExpress MBP Fusion and Purification System. Two complementary oligonucleotide primers encoding PLS (optimized for expression in E. coli) were annealed and inserted into the pMal-c5x plasmid at the XmnI and SalI insertion sites. The three mutants MBP:PLS(C6S), MBP:PLS(C17S), and MBP:PLS(C6S/C17S) were created by site-directed mutagenesis (QuikChange II, Agilent). E. coli NEB Express containing the pMal plasmid with the correct MBP:PLS mutant was used to overexpress each protein. Harvested cells were resuspended in 20 mM Tris–HCl (pH 7.4), 200 mM NaCl, and 1 mM EDTA, then frozen at −20°C overnight. Cells were defrosted in cold H2O, sonicated, purified by ammonium sulfate precipitation (where MBP-PLS precipitates >60% saturation), separated on an MBP-Trap column (GE Healthcare), and eluted using buffer containing 10 mM maltose. MBP:PLS-containing fractions were pooled and concentrated using a centrifugal concentrator (Corning, Spin-X UF 30 kDa) and buffer exchanged by desalting column into a metal-free buffer of 20 mM HEPES (pH 7.0) and 50 mM NaCl in an anaerobic chamber (Belle Technology). Mutants containing thiols were quantified using Ellman’s assay, and MBP:PLS(C6S/C17S), which lacks all thiols, was quantified using the Bradford assay alone. Samples were also analyzed for metal content by ICP–MS to ensure >95% apo-protein.
All Cu(I) titration experiments were carried out in an anaerobic chamber (Belle Technology) using metal-free CHELEX-treated, degassed buffers. For titration experiments with Cu(I), aqueous CuSO4 stock was quantified in advance by ICP–MS and diluted to working concentrations. The reductant NH2OH was included at a final concentration of 1 mM to maintain Cu(I) in its reduced state. Proteins were diluted in buffer to the final concentration specified in each titration in air-tight quartz cuvettes (Helma), and after addition of probe to the concentration specified, titrated with CuSO4. After each addition, solutions were thoroughly mixed and absorbance spectra recorded using a Lambda 35 UV/Vis spectrophotometer (PerkinElmer). Titration isotherm data were fitted using simulated affinity curves with DynaFit ([Kuzmič, 2009]).

pls mutant = details: cited from earlier work
Excerpt: Transgenic complementation of the mutant by the PLS gene (AT4G39403), which encodes a 36-amino-acid peptide, suppresses the mutant phenotype ([ ... || The pls mutant is rescued by the supply of silver ions ([Casson et al., 2002]), and silver is likely delivered to the ethylene receptor via RAN1 ([Binder et al., 2010]); these findings argue against a mechanism in which PLS acts downstream of RAN1 to metalate ETR1 in the ER lumen. It is also unlikely that PLS removes Cu(I) from the receptor, as this would inactivate the receptor and lead to enhanced ethylene signaling in the presence of PLS, which is the opposite of what would be expected from the pls mutant phenotype. We therefore favor a model (Figure 6) in which PLS binds ETR1 as part of th ...

[3] = biological target: T1, full-length ETR1, recombinant, purified and fluorescently labeled (Arabidopsis, UniProt P49333 1-738, fluorescent label (dye and site not stated)); experiment: MST
T1 chain: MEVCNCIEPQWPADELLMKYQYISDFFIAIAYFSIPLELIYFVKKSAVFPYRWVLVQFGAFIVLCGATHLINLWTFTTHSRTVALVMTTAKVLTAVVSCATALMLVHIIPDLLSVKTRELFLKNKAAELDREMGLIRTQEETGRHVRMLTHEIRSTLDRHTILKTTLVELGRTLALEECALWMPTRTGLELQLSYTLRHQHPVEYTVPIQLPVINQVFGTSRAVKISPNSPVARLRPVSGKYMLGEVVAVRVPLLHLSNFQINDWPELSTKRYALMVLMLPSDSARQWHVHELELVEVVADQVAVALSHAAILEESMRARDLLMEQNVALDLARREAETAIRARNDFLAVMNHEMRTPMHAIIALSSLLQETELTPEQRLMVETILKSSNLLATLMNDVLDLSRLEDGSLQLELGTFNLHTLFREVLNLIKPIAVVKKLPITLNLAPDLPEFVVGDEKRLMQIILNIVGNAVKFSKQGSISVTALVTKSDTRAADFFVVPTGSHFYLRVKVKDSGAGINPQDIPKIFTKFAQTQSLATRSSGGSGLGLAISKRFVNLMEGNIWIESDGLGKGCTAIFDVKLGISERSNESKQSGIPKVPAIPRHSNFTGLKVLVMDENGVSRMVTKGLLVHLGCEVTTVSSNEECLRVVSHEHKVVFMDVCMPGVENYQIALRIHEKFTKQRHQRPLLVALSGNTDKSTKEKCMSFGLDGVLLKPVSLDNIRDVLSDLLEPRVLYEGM

For `O=C(O)COc1ccc(Cl)cc1Cl` [2,4-D], the “pPLS::GUS expression” value (pPLS::GUS) was “throughout the root”.

With “C1: C-terminal 14 amino acids of Arabidopsis PLS (YLLVAKLFKLFKIH; UniProt Q8LLV8 23-36, looked up, fragment)” the “rescue of root growth of pls seedlings” value ([1]; hydroponic, 10 days) was “unable to rescue the mutant”.

In the case of “C2: C-terminal 24 amino acids of Arabidopsis PLS (SISPCYISISYLLVAKLFKLFKIH; UniProt Q8LLV8 13-36, looked up, fragment)”, the “rescue of root growth of pls seedlings” value ([1]; hydroponic, 10 days) is reported as “unable to rescue the mutant”.

For “N1: N-terminal 22 amino acids of Arabidopsis PLS (MKPRLCFNFRRRSISPCYISIS; UniProt Q8LLV8 1-22, looked up, fragment)”, the “rescue of root growth of pls seedlings” value ([1]; hydroponic, 10 days) was “rescued root growth”, the “difference in rescue effects of PLS(FL) and PLS(N1), t-test P” value ([1]; 50 nM, n = 25) was over 0.1 and the “difference in rescue effects of PLS(FL) and PLS(N1)” value ([1]; 50 nM, n = 25, t-test) was “did not differ significantly”. For the same molecule, the “rescue of short primary root length of pls mutant” value ([1]; hydroponic, 10 days, 100 nM (Figure 2B) or 50 nM (Figure 2C)) was “able to rescue the short primary root length”.

In the case of “N2: N-terminal 9 amino acids of Arabidopsis PLS (MKPRLCFNF; UniProt Q8LLV8 1-9, looked up, fragment)”, the “rescue of root growth of pls seedlings” value ([1]; hydroponic, 10 days) is reported as “unable to rescue the mutant”.

For “PLS(FL C6S, C17S): mutated Arabidopsis full-length peptide in which both cysteines were replaced with serines (MKPRLSFNFRRRSISPSYISISYLLVAKLFKLFKIH; full-length; UniProt Q8LLV8 1-36, looked up, variant C6S C17S)”, the “rescue of pls mutant by double-Cys mutant peptide” value ([1]; 100 nM, hydroponic, 10 days (Figure 5A)) was “non-functional; also recorded: failing to rescue the short primary root phenotype of the pls mutant” and the “withholding of Cu(I) from BCA” value [2] was “does not”.

In the case of silver ions, the “rescue of pls mutant phenotype” value (pls mutant; pharmacological inhibition of ethylene signaling, ref Chilley et al., 2006) is given as “rescued” and the “rescue of pls mutant” value (pls mutant; supply of silver ions, ref Casson et al., 2002) is given as “rescued”.

With MKPRLCFNFRRRSISPCYISISYLLVAKLFKLFKIH [synthetic full-length POLARIS (PLS) peptide, PLS(FL)] the Kd [3] was 1900 nM.
